# Activity calls are given as the source filed them.
# Assays:
# Paired box protein Pax-8 = Paired box protein Pax-8 (Homo sapiens, UniProt Q06710); test: inhibitors of PAX8-driven TPO luciferase reporter, dose response, RMG-I cells, cherry-pick (AID 687027); type: functional, cell-based;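 further: luciferase reporter driven by Pax8 target thyroperoxidase promoter measured by SteadyGlo luminescence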
# [1] = cytotoxicity in OVCAR8 ovarian cancer cells, dose response, PAX8 project, cell-based, plate reader, dry powder samples (AID 743197); type: functional; conditions: OVCAR-8
# [2] = NIH:OVCAR-3 ovarian cancer cell cytotoxicity, dose response, PAX8 inhibitor project, plate reader, dry powder samples (AID 743044); type: functional, cell-based
# [3] = A cytotoxicity screen of small molecule inhibitors of the PhoP region in Salmonella typhi identified in the primary screen. [Related pubchem assays: 1850, 1864, 1985 ]; type: functional
# [4] = target: DNA dC->dU-editing enzyme APOBEC-3G (Homo sapiens, UniProt Q9HC16); type: functional;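 further: Dose-response counterscreen measuring inhibition of APOBEC3G DNA deaminase activity, run while confirming APOBEC3A inhibitors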
# DNA dC->dU-editing enzyme APOBEC-3G, sequence (Q9HC16 whole entry): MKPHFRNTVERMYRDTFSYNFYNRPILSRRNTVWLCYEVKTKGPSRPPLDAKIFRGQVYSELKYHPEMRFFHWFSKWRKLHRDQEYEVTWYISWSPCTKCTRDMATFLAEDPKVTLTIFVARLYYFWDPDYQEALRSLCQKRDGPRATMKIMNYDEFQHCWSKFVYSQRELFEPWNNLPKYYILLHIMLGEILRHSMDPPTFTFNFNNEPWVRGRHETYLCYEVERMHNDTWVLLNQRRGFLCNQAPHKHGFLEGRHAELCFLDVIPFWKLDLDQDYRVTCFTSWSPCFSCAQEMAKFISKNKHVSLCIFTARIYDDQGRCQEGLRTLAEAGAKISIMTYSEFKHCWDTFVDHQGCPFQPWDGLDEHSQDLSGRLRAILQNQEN
# [5] = target: DNA dC->dU-editing enzyme APOBEC-3A (Homo sapiens, UniProt P31941); test: Dose Response confirmation of small molecule APOBEC3A DNA Deaminase Inhibitors via a fluorescence-based single-stranded DNA deaminase assay. [Related pubchem assays (depositor defined):AID493011, AID493024]; type: functional
# DNA dC->dU-editing enzyme APOBEC-3A, sequence (P31941 whole entry): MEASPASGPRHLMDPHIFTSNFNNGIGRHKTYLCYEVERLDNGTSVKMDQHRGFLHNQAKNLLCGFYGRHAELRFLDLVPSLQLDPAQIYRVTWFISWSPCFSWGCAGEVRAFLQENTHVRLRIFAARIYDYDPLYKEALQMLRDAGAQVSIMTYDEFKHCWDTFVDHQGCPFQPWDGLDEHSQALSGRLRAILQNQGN
# HeLa = test: HeLa cell cytotoxicity, dose response, cytotoxicity control for MITF activator project, CellTiter-Glo luminescence, cherry-pick samples (AID 540259); type: functional, cell-based; conditions: Homo sapiens
# Protein skinhead-1 = target: T1, Protein skinhead-1 (Caenorhabditis elegans, UniProt P34707); type: functional
# T1 sequence (P34707 whole entry): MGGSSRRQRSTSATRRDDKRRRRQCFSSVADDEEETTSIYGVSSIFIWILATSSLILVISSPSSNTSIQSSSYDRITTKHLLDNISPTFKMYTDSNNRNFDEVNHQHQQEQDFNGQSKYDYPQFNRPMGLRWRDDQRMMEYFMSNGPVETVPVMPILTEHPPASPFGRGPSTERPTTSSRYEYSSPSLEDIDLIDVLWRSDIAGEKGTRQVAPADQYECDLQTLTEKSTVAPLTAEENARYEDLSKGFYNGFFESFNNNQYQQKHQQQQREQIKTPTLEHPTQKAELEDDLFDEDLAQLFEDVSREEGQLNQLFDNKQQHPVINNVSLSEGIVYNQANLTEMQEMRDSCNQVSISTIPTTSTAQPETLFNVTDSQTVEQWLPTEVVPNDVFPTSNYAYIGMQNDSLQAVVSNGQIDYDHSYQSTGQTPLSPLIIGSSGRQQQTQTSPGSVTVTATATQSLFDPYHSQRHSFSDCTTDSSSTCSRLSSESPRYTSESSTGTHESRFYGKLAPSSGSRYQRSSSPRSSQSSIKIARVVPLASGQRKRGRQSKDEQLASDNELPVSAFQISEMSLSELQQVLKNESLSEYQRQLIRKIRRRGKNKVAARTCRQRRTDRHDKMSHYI
# [6] = target: Heat shock protein HSP 90-alpha (Homo sapiens, UniProt P07900); type: functional, organism-based
# Fatty acid synthase [7] = target: T2, Fatty acid synthase (Homo sapiens, UniProt P49327); test: FAS thioesterase domain inhibitors, dose response, biochemical, kinetic fluorescence intensity (AID 624326); type: functional;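 further: rate of fluorescence rise from hydrolysis of a fluorogenic O-methyl fluorescein ester substrate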
# T2 sequence (P49327 whole entry, the tested form may be a part): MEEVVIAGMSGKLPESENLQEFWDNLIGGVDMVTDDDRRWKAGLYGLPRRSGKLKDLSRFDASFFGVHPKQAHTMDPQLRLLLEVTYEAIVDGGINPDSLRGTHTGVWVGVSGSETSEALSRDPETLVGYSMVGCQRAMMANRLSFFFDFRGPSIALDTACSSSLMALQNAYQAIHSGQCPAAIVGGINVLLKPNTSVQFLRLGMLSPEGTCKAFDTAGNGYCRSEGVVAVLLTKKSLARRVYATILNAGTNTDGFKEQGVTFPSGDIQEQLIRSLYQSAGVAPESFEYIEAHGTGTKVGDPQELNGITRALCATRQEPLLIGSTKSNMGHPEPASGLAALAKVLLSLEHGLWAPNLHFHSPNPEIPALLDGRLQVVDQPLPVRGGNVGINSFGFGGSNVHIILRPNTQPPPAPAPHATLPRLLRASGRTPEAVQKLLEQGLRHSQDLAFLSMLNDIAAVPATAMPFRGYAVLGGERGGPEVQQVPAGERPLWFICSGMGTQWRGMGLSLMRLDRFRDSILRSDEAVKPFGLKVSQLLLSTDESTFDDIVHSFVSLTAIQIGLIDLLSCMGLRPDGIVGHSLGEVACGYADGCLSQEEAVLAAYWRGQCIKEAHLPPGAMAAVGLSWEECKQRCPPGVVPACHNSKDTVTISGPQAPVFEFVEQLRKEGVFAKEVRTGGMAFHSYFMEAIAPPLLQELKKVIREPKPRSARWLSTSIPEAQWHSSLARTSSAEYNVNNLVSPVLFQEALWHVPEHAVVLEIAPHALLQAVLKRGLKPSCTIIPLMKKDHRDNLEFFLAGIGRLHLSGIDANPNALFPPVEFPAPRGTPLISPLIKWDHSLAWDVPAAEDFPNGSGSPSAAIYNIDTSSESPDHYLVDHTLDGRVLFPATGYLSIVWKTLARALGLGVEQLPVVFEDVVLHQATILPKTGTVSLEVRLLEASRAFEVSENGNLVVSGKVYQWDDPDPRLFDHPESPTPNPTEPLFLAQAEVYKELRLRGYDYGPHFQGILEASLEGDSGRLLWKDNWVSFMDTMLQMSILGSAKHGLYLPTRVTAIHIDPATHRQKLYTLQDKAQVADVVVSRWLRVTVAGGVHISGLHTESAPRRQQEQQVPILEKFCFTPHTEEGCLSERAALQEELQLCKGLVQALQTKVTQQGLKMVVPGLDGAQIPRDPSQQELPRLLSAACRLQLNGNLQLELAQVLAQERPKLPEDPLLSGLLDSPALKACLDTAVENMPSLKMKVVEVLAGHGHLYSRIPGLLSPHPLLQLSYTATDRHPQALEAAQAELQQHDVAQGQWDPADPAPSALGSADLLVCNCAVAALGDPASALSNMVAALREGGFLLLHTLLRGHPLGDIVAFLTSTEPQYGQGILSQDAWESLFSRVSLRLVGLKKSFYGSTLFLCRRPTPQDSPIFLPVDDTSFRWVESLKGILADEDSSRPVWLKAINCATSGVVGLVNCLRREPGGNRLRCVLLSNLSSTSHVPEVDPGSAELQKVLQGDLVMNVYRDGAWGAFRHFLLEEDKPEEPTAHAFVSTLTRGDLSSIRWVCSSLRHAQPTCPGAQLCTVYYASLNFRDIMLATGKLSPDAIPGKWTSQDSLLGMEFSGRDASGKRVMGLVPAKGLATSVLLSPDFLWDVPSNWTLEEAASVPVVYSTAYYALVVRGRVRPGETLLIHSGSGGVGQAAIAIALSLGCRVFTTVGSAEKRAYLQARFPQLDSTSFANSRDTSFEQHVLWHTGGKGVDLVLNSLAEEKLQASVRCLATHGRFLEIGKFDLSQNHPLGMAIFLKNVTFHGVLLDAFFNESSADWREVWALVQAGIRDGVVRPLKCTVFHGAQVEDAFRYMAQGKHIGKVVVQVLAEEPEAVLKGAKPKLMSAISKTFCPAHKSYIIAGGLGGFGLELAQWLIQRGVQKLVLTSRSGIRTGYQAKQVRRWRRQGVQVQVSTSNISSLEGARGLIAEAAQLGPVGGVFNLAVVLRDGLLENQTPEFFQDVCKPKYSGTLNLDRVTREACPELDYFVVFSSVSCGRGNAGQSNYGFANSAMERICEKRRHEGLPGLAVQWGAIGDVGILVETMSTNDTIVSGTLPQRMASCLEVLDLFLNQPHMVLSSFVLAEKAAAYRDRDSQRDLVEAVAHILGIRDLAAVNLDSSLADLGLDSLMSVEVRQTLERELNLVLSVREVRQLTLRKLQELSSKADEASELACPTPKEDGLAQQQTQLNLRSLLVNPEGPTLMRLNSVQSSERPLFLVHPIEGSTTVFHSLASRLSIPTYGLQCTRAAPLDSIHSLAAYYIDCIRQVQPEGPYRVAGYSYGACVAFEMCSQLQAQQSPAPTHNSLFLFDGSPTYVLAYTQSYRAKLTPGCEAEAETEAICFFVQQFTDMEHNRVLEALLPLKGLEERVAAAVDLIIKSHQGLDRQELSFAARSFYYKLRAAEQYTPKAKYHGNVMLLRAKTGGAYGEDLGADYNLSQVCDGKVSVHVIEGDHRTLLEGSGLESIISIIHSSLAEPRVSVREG
# Fatty acid synthase [8] = target: T2, Fatty acid synthase; test: FAS thioesterase domain inhibitors, dose response, biochemical, endpoint fluorescence intensity, uHTS hits (AID 624327); type: functional;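 further: fluorescence from hydrolysis of an O-methyl fluorescein acyl ester substrate by the enzyme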
# Nonstructural protein 1 = Nonstructural protein 1 (Influenza A virus, UniProt Q194T2); type: functional, Influenza A virus (A/California/07/2009(H1N1))
# Nonstructural protein 1, sequence (Q194T2 whole entry): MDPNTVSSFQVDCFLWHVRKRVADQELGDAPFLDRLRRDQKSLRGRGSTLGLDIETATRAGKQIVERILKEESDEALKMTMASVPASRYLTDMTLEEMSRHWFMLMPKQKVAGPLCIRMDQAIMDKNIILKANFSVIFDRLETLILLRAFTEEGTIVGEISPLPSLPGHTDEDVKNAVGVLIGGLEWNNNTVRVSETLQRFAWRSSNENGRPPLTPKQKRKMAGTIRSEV
# [9] = HEp-2 cell cytotoxicity, dose response, cytotoxicity control for RSV inhibitor project, HTS (AID 2410); type: functional; conditions: human respiratory syncytial virus
# [10] = target: Induced myeloid leukemia cell differentiation protein Mcl-1 (Homo sapiens, UniProt Q07820); type: functional
# Induced myeloid leukemia cell differentiation protein Mcl-1, sequence (Q07820 whole entry): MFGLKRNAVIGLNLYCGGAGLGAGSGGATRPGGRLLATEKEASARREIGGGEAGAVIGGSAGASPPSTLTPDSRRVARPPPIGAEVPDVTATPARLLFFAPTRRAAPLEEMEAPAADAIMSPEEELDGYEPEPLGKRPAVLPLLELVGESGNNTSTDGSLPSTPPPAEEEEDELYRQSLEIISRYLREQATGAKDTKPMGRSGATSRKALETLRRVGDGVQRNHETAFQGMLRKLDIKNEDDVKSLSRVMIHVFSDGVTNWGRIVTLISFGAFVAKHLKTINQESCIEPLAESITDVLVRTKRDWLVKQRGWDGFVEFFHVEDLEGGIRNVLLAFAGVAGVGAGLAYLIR
# Large T antigen = Large T antigen (Simian virus 40, UniProt P03070); type: functional, Betapolyomavirus macacae;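 further: Confirmatory-stage PubChem screen for compounds that inhibit SV40 T antigen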
# [11] = target: T3, RNA-binding protein pos-1 (Caenorhabditis elegans, UniProt G5EF15); test: inhibitors of POS-1/mex-3 RNA binding, dose response, biochemical, fluorescence polarization (AID 1964);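 further: purified POS-1 fused to maltose binding protein made in E. coli; potency of compounds blocking POS-1 binding to fluorescent RNA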
# T3 sequence (G5EF15 whole entry): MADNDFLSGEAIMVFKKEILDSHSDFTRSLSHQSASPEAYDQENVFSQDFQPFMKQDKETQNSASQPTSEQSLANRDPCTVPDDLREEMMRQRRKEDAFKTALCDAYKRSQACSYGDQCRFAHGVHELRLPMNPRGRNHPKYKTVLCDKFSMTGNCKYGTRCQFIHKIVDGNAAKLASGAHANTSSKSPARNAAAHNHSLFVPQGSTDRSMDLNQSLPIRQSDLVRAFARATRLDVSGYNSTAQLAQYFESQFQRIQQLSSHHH
# Genome polyprotein = Genome polyprotein (dengue virus type 2, UniProt P29990); test: Dengue-2 NS5 methyltransferase inhibitors, primary screen, biochemical, confirmation dose response (AID 588689); type: functional
# Genome polyprotein, sequence (P29990 2492-3391 limits assumed): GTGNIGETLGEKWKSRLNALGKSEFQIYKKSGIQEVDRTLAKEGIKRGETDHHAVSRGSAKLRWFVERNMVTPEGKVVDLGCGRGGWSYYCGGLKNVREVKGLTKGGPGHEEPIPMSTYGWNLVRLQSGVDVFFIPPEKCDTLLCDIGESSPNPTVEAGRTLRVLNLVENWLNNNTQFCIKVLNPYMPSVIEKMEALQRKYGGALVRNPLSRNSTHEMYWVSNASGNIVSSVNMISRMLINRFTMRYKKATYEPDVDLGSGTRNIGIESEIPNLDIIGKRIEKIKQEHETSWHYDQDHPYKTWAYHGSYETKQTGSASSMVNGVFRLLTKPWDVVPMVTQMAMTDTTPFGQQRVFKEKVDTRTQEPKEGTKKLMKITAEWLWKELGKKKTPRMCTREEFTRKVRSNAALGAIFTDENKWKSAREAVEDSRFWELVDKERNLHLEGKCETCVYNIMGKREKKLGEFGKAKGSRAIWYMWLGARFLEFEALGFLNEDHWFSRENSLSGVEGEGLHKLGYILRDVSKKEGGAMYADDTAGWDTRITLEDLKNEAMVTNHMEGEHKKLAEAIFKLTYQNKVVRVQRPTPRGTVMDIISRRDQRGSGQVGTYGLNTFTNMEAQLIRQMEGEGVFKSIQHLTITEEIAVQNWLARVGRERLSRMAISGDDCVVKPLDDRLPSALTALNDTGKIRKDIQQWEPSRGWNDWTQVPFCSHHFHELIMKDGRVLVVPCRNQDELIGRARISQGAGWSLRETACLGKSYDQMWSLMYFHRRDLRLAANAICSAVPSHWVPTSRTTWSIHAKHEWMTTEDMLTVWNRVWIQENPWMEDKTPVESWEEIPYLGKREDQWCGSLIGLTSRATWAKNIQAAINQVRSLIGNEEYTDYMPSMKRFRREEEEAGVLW
# [12] = target: T4, Zinc finger protein mex-5 (Caenorhabditis elegans, UniProt Q9XUB2); test: MEX-5/TCR-2 RNA interaction inhibitors, dose response, biochemical, C. elegans, fluorescence polarization (AID 1960)
# T4 sequence (Q9XUB2 whole entry): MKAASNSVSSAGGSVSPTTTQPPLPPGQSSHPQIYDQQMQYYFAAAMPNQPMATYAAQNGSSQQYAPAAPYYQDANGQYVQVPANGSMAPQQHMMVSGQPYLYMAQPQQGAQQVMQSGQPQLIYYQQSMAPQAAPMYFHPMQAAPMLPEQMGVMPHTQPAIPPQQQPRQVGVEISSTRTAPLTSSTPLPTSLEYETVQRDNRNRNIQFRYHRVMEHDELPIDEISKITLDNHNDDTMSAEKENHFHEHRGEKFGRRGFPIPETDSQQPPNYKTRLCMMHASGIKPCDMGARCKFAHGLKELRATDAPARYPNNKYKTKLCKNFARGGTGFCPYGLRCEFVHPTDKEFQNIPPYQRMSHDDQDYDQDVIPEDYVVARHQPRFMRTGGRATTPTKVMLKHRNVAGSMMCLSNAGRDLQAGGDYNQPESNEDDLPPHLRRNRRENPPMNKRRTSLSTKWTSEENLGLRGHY
# [13] = inhibitors of HIV Env-driven cell fusion, dose response, cherry-pick (AID 652057); type: functional, cell-based
# [14] = inhibitors of clade B AD8 Env fusion, dose response, cell-based, cherry-pick (AID 652062); type: functional;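 further: luciferase signal from cell-cell fusion driven by HIV-1 clade B AD8 Env; potency is for inhibitors of fusion seen as a drop in luminescence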
# [15] = Luminescence Cell-Based Dose Confirmation HTS to Identify Activators of 5'UTR Stem-Loop Driven Alpha-Synuclein mRNA Translation in H4 Neuroglioblastoma Cells. [Related pubchem assays: 1829 (Project Summary), 1814 (Primary HTS)]; type: functional
# H4 = test: Luminescence Cell-Based Dose Response HTS to Identify Activators of 5'UTR Stem-Loop Driven Prion Protein mRNA Translation in H4 Neuroglioblastoma Cells. [Related pubchem assays: 1829 (Project Summary), 1814 (Primary HTS)]; type: functional; conditions: Homo sapiens
# [16] = Luminescence Cell-Based Dose Response HTS to Identify Activators of Luciferase Translation or Activity in H4 […] Cells. [Related pubchem assays: 1829 (Project Summary), 1814 (Primary HTS)]; type: functional
# [17] = Counterscreen for inhibitors of Trypanosoma brucei methionyl tRNA synthetase (MetRS): Luminescence-based cell-based high throughput dose response assay to identify compounds that are cytotoxic to Jurkat human T lymphocyte cells.; type: functional
# Albumin = Albumin (Bos taurus, UniProt P02769); test: Counterscreen for inhibitors of T-cell receptor (TCR)-CD3 interaction: Fluorescence-based biochemical high throughput dose response assay to identify inhibitors of T-cell receptor (TCR)-CD3 interaction using a TAMRA-labeled BSA probe.; type: functional
# Paired box protein Pax-8, sequence (Q06710 whole entry): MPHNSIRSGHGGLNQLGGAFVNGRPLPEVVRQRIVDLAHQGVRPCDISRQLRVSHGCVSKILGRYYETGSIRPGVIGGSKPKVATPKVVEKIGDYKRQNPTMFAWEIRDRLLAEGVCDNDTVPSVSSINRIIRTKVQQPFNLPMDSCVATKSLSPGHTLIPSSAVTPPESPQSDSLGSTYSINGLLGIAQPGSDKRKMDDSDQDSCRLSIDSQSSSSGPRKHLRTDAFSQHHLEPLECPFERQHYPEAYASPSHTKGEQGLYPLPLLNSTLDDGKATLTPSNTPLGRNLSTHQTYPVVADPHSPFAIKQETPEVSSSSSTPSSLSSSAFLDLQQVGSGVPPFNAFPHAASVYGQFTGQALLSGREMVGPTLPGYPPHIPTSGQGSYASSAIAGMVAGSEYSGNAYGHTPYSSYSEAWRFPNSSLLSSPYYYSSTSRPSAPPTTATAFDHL
compound,measurement,setting,value
C[C@@H]1CN([C@H](C)CO)C(=O)c2cc(NC(=O)Nc3ccc(C(F)(F)F)cc3)ccc2O[C@@H](C)CCCCO[C@H]1CN(C)S(=O)(=O)c1ccc(Cl)cc1,AC50,Paired box protein Pax-8,2.41 µM (active)
same,AC50,[1],> 70 µM (inactive)
same,AC50,[2],26.3 µM (active)
COc1ccccc1NC(=O)CN1CCC(c2nc3cc(C)ccc3[nH]2)CC1,EC50,[3],> 50 µM (active)
CCCCCCCCCCOC(=O)C[N+](C)(C)CC1CCCCC1O (stereo not drawn),EC50,[3],> 50 µM (active)
COc1ccc(-n2c(C)cc(C(=O)C[N+]34CCN(CC3)CC4)c2C)cc1,IC50,[4],2.73 µM (active)
same,IC50,[5],2.64 µM (active)
CSC1=NCCN1CCOc1ccccc1,IC50,[4],8.19 µM (active)
same,IC50,[5],6.77 µM (active)
COc1ccccc1-c1ccc2c(c1)[C@@H]1[C@@H](CCN1S(=O)(=O)c1ccccc1F)[C@H](CO)N2,AC50,Paired box protein Pax-8,6.87 µM (active)
same,AC50,[2],20.7 µM (active)
O=C(Nc1ccc(OC(F)F)c(Cl)c1)c1ccccn1,AC50,HeLa,99.7 µM (active)
same,IC50,Protein skinhead-1,51.6 µM (inactive)
Fc1ccc(COc2ccc(-c3nnco3)cc2)cc1,IC50,Protein skinhead-1,5.67 µM (active)
Nc1cc(N2CCOCC2)c(Cl)cc1[N+](=O)[O-],EC50,[3],> 50 µM (active)
CCC(=O)c1ccc(OCC(=O)Nc2cc(S(=O)(=O)N3CCCCC3)ccc2N2CCN(CC)CC2)cc1,IC50,[4],5.31 µM (active)
same,IC50,[5],3.32 µM (active)
O=C1C=CC(=Nc2ccc(F)cc2)O1,AC50,[6],2.25 µM (active)
CCCc1cc(C(=O)Nc2cc(Cl)ccc2O)no1,AC50,HeLa,> 350 µM (inactive)
N#Cc1ccc(Sc2nc3ccccc3[nH]2)cc1C#N,IC50,Fatty acid synthase [7],2.3 µM (active)
same,IC50,Fatty acid synthase [8],2.7 µM (active)
Cc1cccc(N=C2c3cc([N+](=O)[O-])ccc3-c3c2cc([N+](=O)[O-])cc3[N+](=O)[O-])c1,AC50,[6],16.6 µM (active)
same,IC50,Nonstructural protein 1,11.7 µM (active)
COc1ccc2c(c1)[C@H]1[C@H](CO2)[C@H](c2ccccc2)[C@]2(C)C(=O)Nc3ccc(Br)cc3C(=O)N12,AC50,[6],1.59 µM (active)
Cn1c(Cc2ccccc2)nnc1SCC(=O)Nc1ccc2c(c1)OCO2,IC50,Protein skinhead-1,> 100 µM (inactive)
Clc1ccc(OCCCN2CCCC2)cc1Cl,EC50,[3],> 50 µM (active)
CCC(=O)Nc1ccc(-c2ccc(N3CCC(C)CC3)nn2)cc1,AC50,HeLa,146 µM (active)
Cn1c2ccccc2c2cc(/C=N/NC(=O)c3cc(O)cc(O)c3)ccc21,IC50,[4],41.6 µM (active)
same,IC50,[5],16.2 µM (active)
same,CC50,[9],12.8 µM (active)
COc1ccc2c(c1OC)C(=O)OC2Nc1nc(-c2cc3cc(Br)ccc3oc2=O)cs1 (stereo not drawn),AC50,HeLa,290 µM (active)
same,CC50,[9],30.7 µM (active)
O=C(Nc1ccc(F)cc1)c1ccc2snnc2c1,EC50,[3],> 50 µM (active)
Cc1nn(CC(=O)Nc2ccc(N(C)C)cc2)c(C)c1[N+](=O)[O-],IC50,[10],7.62 µM (not active)
same,IC50,Large T antigen,12.3 µM (active)
CCC(=O)OC1(C)C(=O)C2=COC(c3ccc(OC)cc3)=CC2=C(Br)C1=O (stereo not drawn),EC50,[11],31.5 µM (active)
same,IC50,Genome polyprotein,> 100 µM (active)
same,EC50,[12],32.9 µM (active)
same,AC50,[6],1.51 µM (active)
Cc1ccc(N(Cc2cc3cccc(C)c3nc2O)S(=O)(=O)c2ccccc2)c(C)c1,IC50,[4],5.56 µM (active)
same,IC50,[5],4.45 µM (active)
COc1ccc(C)c2s/c(=N\C(=O)c3ccc(C(C)=O)cc3)n(C)c12,AC50,HeLa,40.9 µM (active)
O=C1Oc2ccccc2C(=O)/C1=C/c1ccccc1O,IC50,Genome polyprotein,25.2 µM (active)
same,IC50,[10],4.18 µM (active)
CCn1c(CNc2ccc(Cl)cc2)nnc1SCc1ccc(Cl)cc1,AC50,[6],5.01 µM (active)
Brc1ccc2nc(-c3ccccc3)c(Cc3ccsc3)n2c1,IC50,Protein skinhead-1,> 100 µM (inactive)
O=C(O)c1ccccc1-c1ccccc1C(=O)Nc1ccc2c(c1)oc(=O)c1ccccc12,IC50,Protein skinhead-1,> 100 µM (inactive)
same,IC50,Genome polyprotein,56.3 µM (active)
O=C1CCCC2=C1C(c1ccc(O)c(O)c1)Nc1ccc3ncccc3c12 (stereo not drawn),IC50,[10],2.67 µM (active)
COc1ccc([N+](=O)[O-])cc1NC(=O)Nc1ccccc1,IC50,Fatty acid synthase [7],15.5 µM (active)
same,IC50,Fatty acid synthase [8],19.9 µM (active)
C[C@H](NC(=O)C[C@@H]1C[C@@H]2c3cc(NC(=O)Nc4ccc(C(F)(F)F)cc4)ccc3O[C@@H]2[C@@H](CO)O1)c1ccccc1,AC50,Paired box protein Pax-8,13.2 µM (active)
same,AC50,[1],36.8 µM (active)
same,AC50,[13],20.6 µM (active)
same,AC50,[14],27.7 µM (active)
same,AC50,[2],37.9 µM (active)
Fc1ccccc1CSc1nc2cc(Br)c[nH]c-2n1,EC50,[15],116 nM (active)
same,EC50,H4,20.3 µM (active)
same,EC50,[16],89.7 µM (active)
same,IC50,[17],83.3 µM (inactive)
CCc1ccc(N2Cc3ccccc3C2)cc1,AC50,HeLa,43.5 µM (active)
CC(C)CSc1ncc(-c2cccc(C(F)(F)F)c2)cn1,IC50,Fatty acid synthase [7],14.2 µM (active)
same,IC50,Fatty acid synthase [8],15.5 µM (active)
O=C1CCCCC1C(=O)c1ccccc1 (stereo not drawn),IC50,[10],0.719 µM (not active)
COc1cc(O)c(/C=N/NC(=O)c2ccncc2)c(OC)c1[N+](=O)[O-],IC50,Albumin,> 94.1 µM (inactive)
same,IC50,Nonstructural protein 1,8.82 µM (active)
COc1ccccc1CNC(=O)COC(=O)c1cc([N+](=O)[O-])ccc1N1CCOCC1,IC50,Fatty acid synthase [7],1.64 µM (active)
same,IC50,Fatty acid synthase [8],1.31 µM (active)

# Reference: ChEMBL document CHEMBL1201862, “PubChem BioAssay data set” (2004)
